Measured values taken from article PMC10513951, “Identification of a dihydroorotate dehydrogenase inhibitor that inhibits cancer cell growth by proteomic profiling” (Oncology Research, 2023).

Molecular target: T1, dihydroorotate dehydrogenase (DHODH) (Homo sapiens, UniProt Q02127)
T1 construct: N-terminal His-tagged DHODH/ΔTM; Met29–Arg395
Assay: DCIP reduction enzyme assay with recombinant human DHODH
Type: biochemical

T1 sequence (Q02127 29-395): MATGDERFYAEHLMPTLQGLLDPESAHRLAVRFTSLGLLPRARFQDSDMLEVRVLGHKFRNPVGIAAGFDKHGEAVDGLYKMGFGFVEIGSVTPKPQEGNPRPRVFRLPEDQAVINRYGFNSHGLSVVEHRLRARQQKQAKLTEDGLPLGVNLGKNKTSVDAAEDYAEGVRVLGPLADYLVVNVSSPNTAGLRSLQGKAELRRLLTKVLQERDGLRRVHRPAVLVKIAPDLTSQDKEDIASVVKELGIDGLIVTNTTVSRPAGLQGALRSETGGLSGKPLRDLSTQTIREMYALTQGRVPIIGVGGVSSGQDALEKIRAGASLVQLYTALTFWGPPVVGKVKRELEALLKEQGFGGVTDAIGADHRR

Cc1cc(=O)oc2c1ccc1oc(C(O)c3ccccc3)c(-c3ccccc3)c12 (centres unmarked) [H-006, 8-(Hydroxyphenylmethyl)-4-methyl-9-phenyl-2H-furo[2,3-h]-1-benzopyran-2-one]
IC50: 3.8 nM

Cc1cc(=O)oc2c1ccc1oc(C(=O)c3ccccc3)c(-c3ccccc3)c12 [NPD723, 8-Benzoyl-4-methyl-9-phenyl-2H-furo[2,3-h]-1-benzopyran-2-one]
IC50: 1520 nM
